Assay: gradient 5% acetonitrile 3 min, to 50% in 2 min, to 85% in 15 min, held 3 min, 100 µL/min
Details: column: Zorbax Extend-C18 2.1 x 50 mm; eluents: water / acetonitrile, 0.1% formic acid
In short: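 Retention times come from adduct peaks that were picked computationally and then checked by hand. The standards, pure and pooled in mixtures of ~100 molecules, were run on a Zorbax Extend-C18 column (2.1 × 50 mm, 1.8 μm) at 100 μL/min with water and acetonitrile, each with 0.1% formic acid. Detection was by quadrupole time-of-flight mass spectrometry in positive and negative ionization mode, with a dead volume of 40 μL and a dwell volume of 900 μL.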

First: CCc1ccc(NC(=O)Nc2cccc(-c3nnc4n3CCCC4)c2)cc1
Second: CCCCc1ccc(NC(=O)CSc2ccc(N3CCCC(C(=O)NCCC)C3)nn2)cc1 (centres undefined)
The RP-LC retention time of the first is lower: 736 s for the first, 860 s for the second.

Compared with CCC1CCCCN1C(=O)c1cnc2nc(C)ccc2c1Nc1ccc2c(c1)OCCO2 (centres undefined), CCOC(=O)c1nc(NCc2ccc3c(c2)OCO3)c2ccccc2n1 is higher in RP-LC retention time: 666 s for the first, 719 s for the second.

Going from CC(C)NC(=O)c1ccc(OCC2CCN(C(=O)C3(c4ccccc4)CC3)CC2)cc1 to CC(C)C(=O)c1cn(CC(=O)COc2ccc(Oc3ccccc3)cc2)c2ccc(C(=O)O)cc12, the RP-LC retention time rises from 897 s to 1140 s.

Going from Cc1ccc(NC(=O)N2CCN(C(=O)N3C[C@H]4C[C@H](C3)[C@H]3CCCC(=O)N3C4)CC2)cc1C to CC(=O)N1CCc2cc(N3CC(C(=O)N4CCC5(CC4)OCCO5)CC3=O)ccc21 (centres undefined), the RP-LC retention time falls from 698 s to 620 s.

First: CCN1c2cc(Cl)ccc2C(=O)NC12CCN(C(=O)Nc1ccc(OC)cc1C)CC2
Second: CCN1c2cc(Cl)ccc2C(=O)NC12CCN(C(=O)NCc1ccccc1)CC2
The RP-LC retention time of the first is higher: 841 s for the first, 757 s for the second.

Going from COc1ccc(S(=O)(=O)N2CCCC(C(=O)Nc3cccc(F)c3)C2)cc1C (centres undefined) to Cc1cccc(CNC(=O)CN2C(=O)CCc3cc(S(=O)(=O)N4CCCCC4C)ccc32)c1 (centres undefined), the RP-LC retention time falls from 1040 s to 998 s.

Compared with CC1Cc2ccccc2N1C(=O)CC1CCN(S(=O)(=O)c2ccc3c(c2)oc(=O)n3C)CC1 (centres undefined), CCC(C)(C)NC(=O)C1CCN(S(=O)(=O)c2ccc3c(c2)NC(=O)CO3)CC1 is lower in RP-LC retention time: 965 s for the first, 745 s for the second.

Going from COc1ccc2c(c1)C1CC(C)(NC(=O)C1C(=O)c1ccccc1)O2 (centres undefined) to COC(=O)C1C(=O)C2=C(CC1C)Nc1ccccc1NC2c1ccc(Cl)cc1 (centres undefined), the RP-LC retention time rises from 758 s to 852 s.

First: O=C(C1CC1)N1CCc2sc(S(=O)(=O)Nc3ccc(Cl)cc3)cc2C1
Second: CN1C(=O)Cc2cc(C(=O)N3CCN(c4ccccc4F)CC3)ccc21
The RP-LC retention time of the first is higher: 853 s for the first, 765 s for the second.

Going from COCCCNC(=O)Cn1c(=O)c(S(=O)(=O)c2ccccc2)cc2cc(C)ccc21 to Cc1ccc(NC(=O)c2cnc3c(c2)c(=O)n(C)c(=O)n3-c2ccccc2)cc1F, the RP-LC retention time rises from 743 s to 956 s.

Going from CCCC(NC(=O)c1ccc(C)cc1C)C(=O)Nc1nc2ccccc2[nH]1 (centres undefined) to COC(=O)c1cn(CC(=O)Nc2cc(F)ccc2F)c2nc(C)ccc2c1=O, the RP-LC retention time falls from 735 s to 727 s.

Compared with COc1ccc(S(=O)(=O)CCc2nc(-c3cccc(-c4ccnn4C)c3)no2)cc1, COc1ccc(-c2ncccc2CNS(=O)(=O)c2cccc(OC)c2)cc1 is lower in RP-LC retention time: 866 s for the first, 670 s for the second.

First: Cc1ccc(OCC(=O)Nc2nnc(C3CC(=O)N(c4ccc(Cl)cc4)C3)o2)cc1 (centres undefined)
Second: CCOc1ccc(N2CC(c3nc4ccccc4n3CCN3CCOCC3)CC2=O)cc1 (centres undefined)
The RP-LC retention time of the first is higher: 788 s for the first, 618 s for the second.

Compared with Cc1ccc([C@@H]2O[C@H](CO)[C@@H](O)[C@H](O)[C@H]2O)cc1Cc1ccc(-c2ccc(F)cc2)s1, O=C(Nc1c(-c2ccc(F)cc2)nc2ccccn12)c1ccccc1 is lower in RP-LC retention time: 847 s for the first, 638 s for the second.

Going from CCc1noc(C2(NC(=O)c3ccc(C(C)(C)C)cc3)CCCCC2)n1 to CCOc1ccc(-c2noc(CN3C(=O)COc4cc(C(C)(C)C)ccc43)n2)cc1, the RP-LC retention time rises from 1190 s to 1260 s.

Going from Cc1ccc(-n2c(N3CCCC(C(=O)NCc4ccc(C)c(C)c4)C3)nc3ccsc3c2=O)cc1 (centres undefined) to Cc1oc2ncnc(N3CCCC(C(=O)NCc4cccc(Cl)c4)C3)c2c1C (centres undefined), the RP-LC retention time falls from 987 s to 920 s.

Compared with CSc1nc2ccc3nc(NC(=O)c4cc(C)no4)sc3c2s1, Cc1nc(N2CCOCC2)c2c(C(=O)Nc3cccc(F)c3)c(C)oc2n1 is lower in RP-LC retention time: 1010 s for the first, 817 s for the second.

Going from Cc1nocc1C(=O)N1CCCn2ccnc2C1C1CCCC1 (centres undefined) to O=C(NC1CCCCC1)N1CC(F)(F)C[C@H]1CN1CCc2ccccc2C1, the RP-LC retention time rises from 589 s to 792 s.

Compared with COc1ccc(-c2nc3ncccn3c2Nc2cccc(Cl)c2C)cc1, Cc1cc(C)n2c(Nc3c(C)cccc3C)c(-c3ccc(O)cc3)nc2n1 is lower in RP-LC retention time: 845 s for the first, 646 s for the second.

Compared with CCn1cc(C(=O)Nc2ccc(Br)cc2)c2nn(-c3ccccc3)c(=O)c-2c1, Nc1cc(=O)nc(SCC(=O)Nc2nc(-c3ccccc3)cs2)n1-c1ccccc1 is lower in RP-LC retention time: 1090 s for the first, 727 s for the second.

Going from CCc1ccccc1NC(=O)Cn1c(=O)nc(N2CCC(C)CC2)c2ccccc21 to CCCc1nc(-c2ccccc2)oc1CC(=O)N1CCN(c2ccccc2F)CC1, the RP-LC retention time rises from 898 s to 1090 s.

Going from C=CCNC(=O)N1CCCN(C2=NS(=O)(=O)C(c3ccc(F)cc3)=C2C)CC1 to O=C(NCC(=O)N1CCN(c2ccccn2)CC1)c1cncc(Br)c1, the RP-LC retention time falls from 736 s to 576 s.

Compared with O=C(NCc1ccccn1)c1nnn(Cc2ccc(Cl)cc2)c1-n1cccc1, O=C(Nc1ccccc1-n1cccc1)c1cn(-c2ccc(F)cc2)nn1 is higher in RP-LC retention time: 760 s for the first, 845 s for the second.

Going from CC(=O)N1CCc2cc(N3CC(C(=O)Nc4ccccc4OC(F)(F)F)CC3=O)ccc21 (centres undefined) to COc1ccc2c(c1)C1(CCN(C(=O)Cc3ccc(Cl)cc3)C1)C(=O)N2C (centres undefined), the RP-LC retention time rises from 766 s to 873 s.

Compared with COc1ccc(CCc2nc3nccc(-c4ccccn4)n3n2)cc1OC, Cc1nc2cc(-c3ccccc3)nn2c(C)c1CCC(=O)N1CCN(c2ccccn2)CC1 is lower in RP-LC retention time: 752 s for the first, 652 s for the second.

Going from CC(C)NC(=O)C1CC(=O)N(CCc2c[nH]c3ccc(F)cc23)C1 (centres undefined) to CC1CCC(NC(=O)C(Cc2c[nH]c3ccccc23)NC(=O)C2CCC(C)CC2)CC1 (centres undefined), the RP-LC retention time rises from 691 s to 1100 s.

First: Cc1ccn2c(Nc3ccc4c(c3)OCO4)c(-c3cc(Br)ccc3F)nc2c1
Second: Cc1nc2c([nH]1)CCN(C(=O)c1ccc(NC(=O)c3ccccc3-c3ccccc3)cc1)c1ccccc1-2
The RP-LC retention time of the first is lower: 747 s for the first, 795 s for the second.

First: CCOc1ccc(N2CCCCn3c2nc2c3c(=O)n(CC)c(=O)n2C)cc1
Second: Cn1cc(-c2cc3n(n2)CCCN3C(=O)CCC(=O)NCCCN2CCCCC2)c2ccccc21
The RP-LC retention time of the first is higher: 902 s for the first, 623 s for the second.

First: Cc1c(C(=O)N2CCCCC2C)sc2ncn(CC(=O)N3CC(C)CC(C)C3)c(=O)c12 (centres undefined)
Second: CC(C(=O)NCCN1CCOCC1)C1CCN(C(=O)c2cc3cc(Cl)ccc3[nH]2)CC1 (centres undefined)
The RP-LC retention time of the first is higher: 846 s for the first, 589 s for the second.

Going from O=C(O)C1CCN(c2ncnc3nc[nH]c23)CC1 to O=C(CCn1cnc2cc(-c3noc(/C=C/c4ccccc4Cl)n3)ccc21)N1CCOCC1, the RP-LC retention time rises from 548 s to 794 s.

First: Ic1ccccc1CNC1C2CCN(CC2)C1C(c1ccccc1)c1ccccc1 (centres undefined)
Second: CC1CCC2(CC1)NC(=O)N(CC(=O)NCc1ccc3c(c1)OCO3)C2=O (centres undefined)
The RP-LC retention time of the first is higher: 982 s for the first, 749 s for the second.

Going from CC1CCCCC12NCCN=C2NCc1cccc(F)c1 (centres undefined) to Cn1cnc2ccc(-c3noc(-c4cccs4)n3)cc21, the RP-LC retention time rises from 640 s to 685 s.

From the METLIN SMRT retention time set (Domingo-Almenara et al. 2019)
